The supplement of paper PMC11061612

Assays:
Assay in all cases: combination Emax (second highest fraction inhibited in the dose matrix, 72 h); higher = more inhibition; extreme values may be limits of the assay
Hey (Ovarian Carcinoma) = tested on: Hey (Ovarian Carcinoma)
How it was run: (§1)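 Cell lines grown in DMEM/F12 or RPMI with 10% FBS were plated in 1536-well plates and held 24 hours at 37°C, 5% CO2 before 72 hours of exposure to two-drug dose matrices, with DMSO typically at 0.2%. CellTiter-Glo 2.0 luminescence gave viability, which was converted to inhibition. Vehicle wells were set to 0 and blank wells to 1. Combination Emax is the second-highest inhibition in the matrix, and Bliss excess is the observed combination effect minus the expected EA + EB − EA·EB, where EA and EB are the single-agent effects.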

[1] = tested on: HAL-01 (B-Lymphoblastic Leukemia)
How it was run: as §1

[2] = tested on: A4-Fuk (B-Lymphoblastic Leukemia)
How it was run: as §1

[3] = tested on: NCI-H1993 (Lung Adenocarcinoma)
How it was run: as §1

Compound | combination Emax (Hey (Ovarian Carcinoma)) | combination Emax [1] | combination Emax [2] | combination Emax [3]
CN(CCO)CC[C@H](CSc1ccccc1)Nc1ccc(S(=O)(=O)NC(=O)c2ccc(N3CCC([C@@H](O)c4ccccc4-c4ccc(Cl)cc4)CC3)cc2)cc1S(=O)(=O)C(F)(F)F [AZD4320] + C=CCn1c(=O)c2cnc(Nc3ccc(N4CCN(C)CC4)cc3)nc2n1-c1cccc(C(C)(C)O)n1 [AZD1775] (first compound max 1 µM, partner max 1 µM) | 0.673 | 1 | 0.898 | 0.927
CC1(C)CCC(CN2CCN(c3ccc(C(=O)NS(=O)(=O)c4ccc(NCC5CCOCC5)c([N+](=O)[O-])c4)c(Oc4cnc5[nH]ccc5c4)c3)CC2)=C(c2ccc(Cl)cc2)C1 [Venetoclax] + C[C@@H](Nc1cc(F)cc(F)c1)c1cc(C(=O)N(C)C)cc2c(=O)cc(N3CCOCC3)oc12 [AZD8186] (first compound max 1 µM, 7x7, partner max 3 µM) | 0.139 | 0.988 | 0.655 | 0.296
CC1(C)CCC(CN2CCN(c3ccc(C(=O)NS(=O)(=O)c4ccc(NCC5CCOCC5)c([N+](=O)[O-])c4)c(Oc4cnc5[nH]ccc5c4)c3)CC2)=C(c2ccc(Cl)cc2)C1 [Venetoclax] + CN(C)CCCOc1ccc(-c2ccc3ncc4c(c3c2)n(C2CCOCC2)c(=O)n4C)cn1 [AZD0156] (first compound max 1 µM, 7x7, partner max 1 µM) | 0.216 | 0.936 | 0.659 | 0.413
COc1nnc2ccc(N3CCC(c4ccc(OCCN5CCN(C)C(=O)[C@H]5C)cc4)CC3)nn12 [AZD5153] + Cc1c2c(nn1C)CSCc1cc(n(C)n1)CSc1cc(c3ccccc3c1)OCCCc1c(C(=O)O)n(C)c3c-2c(Cl)ccc13 [AZD5991] (first compound max 1 µM, 7x7, partner max 1 µM) | 0.598 | 0.873 | 1 | 0.552
CN(C)CCCOc1ccc(-c2ccc3ncc4c(c3c2)n(C2CCOCC2)c(=O)n4C)cn1 [AZD0156] + C=CCn1c(=O)c2cnc(Nc3ccc(N4CCN(C)CC4)cc3)nc2n1-c1cccc(C(C)(C)O)n1 [AZD1775] (first compound max 1 µM, partner max 1 µM) | 0.495 | 0.917 | 0.816 | 0.586
NC1(C(=O)N[C@@H](CCO)c2ccc(Cl)cc2)CCN(c2ncnc3[nH]ccc23)CC1 [Capivasertib] + C[C@@H]1COCCN1C2=NC(=NC(=C2)C3(CC3)[S@](=N)(=O)C)C4=C5C=CNC5=NC=C4 [AZD6738] (first compound max 10 µM, 7x7, partner max 10 µM) | 0.777 | 0.97 | 0.942 | 0.742
COc1nnc2ccc(N3CCC(c4ccc(OCCN5CCN(C)C(=O)[C@H]5C)cc4)CC3)nn12 [AZD5153] + Cn1cnc2c(F)c(Nc3ccc(Br)cc3Cl)c(C(=O)NOCCO)cc21 [Selumetinib] (first compound max 1 µM, 7x7, partner max 10 µM) | 0.726 | 0.849 | 0.934 | 0.915
C=CCn1c(=O)c2cnc(Nc3ccc(N4CCN(C)CC4)cc3)nc2n1-c1cccc(C(C)(C)O)n1 [AZD1775] + C[C@@H]1COCCN1C2=NC(=NC(=C2)C3(CC3)[S@](=N)(=O)C)C4=C5C=CNC5=NC=C4 [AZD6738] (first compound max 1 µM, partner max 10 µM) | 0.809 | 1 | 0.875 | 0.689
CC1(C)CCC(CN2CCN(c3ccc(C(=O)NS(=O)(=O)c4ccc(NCC5CCOCC5)c([N+](=O)[O-])c4)c(Oc4cnc5[nH]ccc5c4)c3)CC2)=C(c2ccc(Cl)cc2)C1 [Venetoclax] + C[C@@H]1COCCN1C2=NC(=NC(=C2)C3(CC3)[S@](=N)(=O)C)C4=C5C=CNC5=NC=C4 [AZD6738] (first compound max 1 µM, 7x7, partner max 10 µM) | 0.774 | 1 | 0.775 | 0.582
COc1cccc(OCCCN)c1-c1cc(Nc2cnc(C#N)cn2)n[nH]1 [Prexasertib] + C=CCn1c(=O)c2cnc(Nc3ccc(N4CCN(C)CC4)cc3)nc2n1-c1cccc(C(C)(C)O)n1 [AZD1775] (first compound max 1 µM, partner max 1 µM) | 0.837 | 1 | 0.906 | 0.906
